{
  "source": "patent US10584117B2",
  "about": "“1,3,4-oxadiazole amide derivative compound as histone deacetylase 6 inhibitor, and pharmaceutical composition containing same” (Chong Kun Dang Pharmaceutical Corp., priority 2015, dated 2020)",
  "target": "T1, human recombinant HDAC6 (Homo sapiens, UniProt Q9UBN7)",
  "T1 construct": "purchased Calbiochem 382180",
  "T1 sequence (Q9UBN7 1-1215)": "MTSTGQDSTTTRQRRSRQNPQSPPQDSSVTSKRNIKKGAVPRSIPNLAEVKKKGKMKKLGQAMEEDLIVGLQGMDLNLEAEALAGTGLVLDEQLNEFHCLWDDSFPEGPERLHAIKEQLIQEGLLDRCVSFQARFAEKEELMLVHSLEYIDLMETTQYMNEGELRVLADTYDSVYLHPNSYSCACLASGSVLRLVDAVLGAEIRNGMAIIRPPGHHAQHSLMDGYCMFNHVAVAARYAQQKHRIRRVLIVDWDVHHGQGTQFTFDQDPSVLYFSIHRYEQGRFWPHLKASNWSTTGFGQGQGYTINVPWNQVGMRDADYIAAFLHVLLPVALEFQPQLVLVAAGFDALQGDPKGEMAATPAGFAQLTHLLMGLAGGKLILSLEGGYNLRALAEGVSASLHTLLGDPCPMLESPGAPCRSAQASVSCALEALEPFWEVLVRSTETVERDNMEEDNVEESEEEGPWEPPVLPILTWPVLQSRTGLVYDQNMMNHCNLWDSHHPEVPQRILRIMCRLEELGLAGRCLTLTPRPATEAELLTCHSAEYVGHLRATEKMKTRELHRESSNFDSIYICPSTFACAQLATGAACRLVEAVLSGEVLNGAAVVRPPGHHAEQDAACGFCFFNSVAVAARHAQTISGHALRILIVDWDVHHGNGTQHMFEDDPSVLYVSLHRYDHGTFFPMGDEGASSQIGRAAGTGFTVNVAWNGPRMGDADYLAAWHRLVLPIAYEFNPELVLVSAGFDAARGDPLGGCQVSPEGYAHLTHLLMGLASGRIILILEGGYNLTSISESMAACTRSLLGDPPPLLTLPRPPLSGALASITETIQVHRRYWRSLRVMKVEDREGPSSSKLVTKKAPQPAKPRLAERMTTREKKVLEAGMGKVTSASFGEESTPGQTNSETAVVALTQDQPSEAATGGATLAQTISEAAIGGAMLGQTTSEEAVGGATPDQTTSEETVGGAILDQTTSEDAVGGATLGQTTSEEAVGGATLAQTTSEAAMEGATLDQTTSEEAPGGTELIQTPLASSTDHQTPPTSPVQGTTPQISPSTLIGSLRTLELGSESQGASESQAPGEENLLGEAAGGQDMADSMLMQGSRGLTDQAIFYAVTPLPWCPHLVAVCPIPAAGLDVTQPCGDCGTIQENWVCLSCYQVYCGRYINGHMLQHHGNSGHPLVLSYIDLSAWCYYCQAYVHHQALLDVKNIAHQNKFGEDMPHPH",
  "test": "HDAC enzyme activity inhibition assay (HDAC6, fluorimetric kit)",
  "assay_type": "biochemical",
  "details": "for HDAC6 selectivity (fold): HDAC6 versus HDAC1; for IC50: same protocol as the HDAC1 test",
  "procedure": "In order to examine the HDAC6 selectivity of the compounds of formula I of the present invention by HDAC1 and HDAC6 enzymatic activity inhibition assays, an experiment was performed using a conventional substance as a control. HDAC enzyme activity was measured using a HDAC Fluorimetric Drug Discovery Kit (BML-AK511, 516) from Enzo Life Science. For the HDAC1 enzyme activity test, human recombinant HDAC1 (BML-SE456) was used as an enzyme source, and Fluor de Lys®-“SIRT1 (BNL-KI177) was used as a substrate. A 5-fold dilution of the compound was seeded into a 96-well plate, and then 0.3 μg of the enzyme and 10 μM of the substrate were added to each well of the plate and allowed to react at 30° C. for 60 minutes. Then, Fluor de Lys®-Developer II (BML-KI176) was added thereto and allowed to react for 30 minutes, after which the fluorescence value (Ex 360, Em 460) was measured using a multi-plate reader (Flexstation 3, Molecular Device). The HDAC6 enzyme was tested using human recombinant HDAC6 (382180) from Calbiochem, according to the same protocol as the HDAC1 enzyme activity test method. Based on the resulting values, each IC50 value was calculated using GraphPad Prism4.0 program.",
  "data": [
    {"smiles": "CC(C)C(=O)N1CCC(C(=O)N(Cc2ccc(-c3nnc(C(F)(F)F)o3)cc2)c2ccccc2)CC1", "note": "[Compound 11163, 1-isobutyryl-N-phenyl-N-(4-(5-(trifluoromethyl)-1,3,4-oxadiazol-2-yl)benzyl)piperidine-4-carboxamide]", "values": [
      {"measurement": "HDAC6 selectivity (fold)", "value": 452, "unit": "fold"},
      {"measurement": "IC50", "value": 221, "unit": "nM"}
    ]},
    {"smiles": "O=C(C1CCN(C(=O)C(F)(F)F)CC1)N(Cc1ccc(-c2nnc(C(F)(F)F)o2)cc1)c1ccccc1", "note": "[Compound 11164, N-phenyl-1-(2,2,2-trifluoroacetyl)-N-(4-(5-(trifluoromethyl)-1,3,4-oxadiazol-2-yl)benzyl)piperidine-4-carboxamide]", "values": [
      {"measurement": "HDAC6 selectivity (fold)", "value": 298, "unit": "fold"},
      {"measurement": "IC50", "value": 336, "unit": "nM"}
    ]},
    {"smiles": "CS(=O)(=O)N1CCC(C(=O)N(Cc2ccc(-c3nnc(C(F)(F)F)o3)cc2)c2ccccc2)CC1", "note": "[Compound 11165, 1-(methylsulfonyl)-N-phenyl-N-(4-(5-(trifluoromethyl)-1,3,4-oxadiazol-2-yl)benzyl)piperidine-4-carboxamide]", "values": [
      {"measurement": "HDAC6 selectivity (fold)", "value": 800, "unit": "fold"},
      {"measurement": "IC50", "value": 125, "unit": "nM"}
    ]},
    {"smiles": "CC(=O)N1CC(C(=O)N(Cc2ccc(-c3nnc(C(F)(F)F)o3)cc2)c2ccccc2)C1", "note": "[Compound 11187, N1-acetyl-N-phenyl-N-(4-(5-(trifluoromethyl)-1,3,4-oxadiazol-2-yl)benzyl)azetidine-3-carboxamide]", "values": [
      {"measurement": "HDAC6 selectivity (fold)", "value": 144, "unit": "fold"},
      {"measurement": "IC50", "value": 189, "unit": "nM"}
    ]},
    {"smiles": "O=C(c1ccncc1)N(Cc1ccc(-c2nnc(C(F)(F)F)o2)cc1F)c1cccc(F)c1", "note": "[Compound 11188, N-(2-fluoro-4-(5-(trifluoromethyl)-1,3,4-oxadiazol-2-yl)benzyl)-N-(3-fluorophenyl)isonicotinamide]", "values": [
      {"measurement": "HDAC6 selectivity (fold)", "value": 935, "unit": "fold"},
      {"measurement": "IC50", "value": 107, "unit": "nM"}
    ]},
    {"smiles": "O=C(c1ccncc1)N(Cc1ccc(-c2nnc(C(F)F)o2)cc1F)c1cccc(F)c1", "note": "[Compound 11189, N-(4-(5-(difluoromethyl)-1,3,4-oxadiazol-2-yl)-2-fluorobenzyl)-N-(3-fluorophenyl)isonicotinamide]", "values": [
      {"measurement": "HDAC6 selectivity (fold)", "value": 2564, "unit": "fold"},
      {"measurement": "IC50", "value": 39, "unit": "nM"}
    ]},
    {"smiles": "CN1CCC(C(=O)N(Cc2ccc(-c3nnc(C(F)(F)F)o3)cc2F)c2ccccc2)CC1", "note": "[Compound 11200, N-(2-fluoro-4-(5-(trifluoromethyl)-1,3,4-oxadiazol-2-yl)benzyl)-1-methyl-N-phenylpiperidine-4-carboxamide]", "values": [
      {"measurement": "HDAC6 selectivity (fold)", "value": 763, "unit": "fold"},
      {"measurement": "IC50", "value": 131, "unit": "nM"}
    ]},
    {"smiles": "CCN1CCC(C(=O)N(Cc2ccc(-c3nnc(C(F)(F)F)o3)cc2F)c2ccccc2)CC1", "note": "[Compound 11201]", "values": [
      {"measurement": "HDAC6 selectivity (fold)", "value": 877, "unit": "fold"},
      {"measurement": "IC50", "value": 114, "unit": "nM"}
    ]},
    {"smiles": "CC(C)N1CCC(C(=O)N(Cc2ccc(-c3nnc(C(F)(F)F)o3)cc2F)c2ccccc2)CC1", "note": "[Compound 11202, N-(2-fluoro-4-(5-(trifluoromethyl)-1,3,4-oxadiazol-2-yl)benzyl)-1-isopropyl-N-phenylpiperidine-4-carboxamide]", "values": [
      {"measurement": "HDAC6 selectivity (fold)", "value": 735, "unit": "fold"},
      {"measurement": "IC50", "value": 136, "unit": "nM"}
    ]},
    {"smiles": "CC(=O)N1CCC(C(=O)N(Cc2ccc(-c3nnc(C(F)(F)F)o3)cc2F)c2ccccc2)CC1", "note": "[Compound 11203, 1-acetyl-N-(2-fluoro-4-(5-(trifluoromethyl)-1,3,4-oxadiazol-2-yl)benzyl)-N-phenylpiperidine-4-carboxamide]", "values": [
      {"measurement": "HDAC6 selectivity (fold)", "value": 694, "unit": "fold"},
      {"measurement": "IC50", "value": 144, "unit": "nM"}
    ]},
    {"smiles": "CCC(=O)N1CCC(C(=O)N(Cc2ccc(-c3nnc(C(F)(F)F)o3)cc2F)c2ccccc2)CC1", "note": "[Compound 11204, N-(2-fluoro-4-(5-(trifluoromethyl)-1,3,4-oxadiazol-2-yl)benzyl)-N-phenyl-1-propionylpiperidine-4-carboxamide]", "values": [
      {"measurement": "HDAC6 selectivity (fold)", "value": 917, "unit": "fold"},
      {"measurement": "IC50", "value": 109, "unit": "nM"}
    ]},
    {"smiles": "CC(C)C(=O)N1CCC(C(=O)N(Cc2ccc(-c3nnc(C(F)(F)F)o3)cc2F)c2ccccc2)CC1", "note": "[Compound 11205, N-(2-fluoro-4-(5-(trifluoromethyl)-1,3,4-oxadiazol-2-yl)benzyl)-1-isobutyryl-N-phenylpiperidine-4-carboxamide]", "values": [
      {"measurement": "HDAC6 selectivity (fold)", "value": 332, "unit": "fold"},
      {"measurement": "IC50", "value": 301, "unit": "nM"}
    ]},
    {"smiles": "O=C(C1CCN(C(=O)C(F)(F)F)CC1)N(Cc1ccc(-c2nnc(C(F)(F)F)o2)cc1F)c1ccccc1", "note": "[Compound 11206, N-(2-fluoro-4-(5-(trifluoromethyl)-1,3,4-oxadiazol-2-yl)benzyl)-N-phenyl-1-(2,2,2-trifluoroacetyl)piperidine-4-carboxamide]", "values": [
      {"measurement": "HDAC6 selectivity (fold)", "value": 269, "unit": "fold"},
      {"measurement": "IC50", "value": 372, "unit": "nM"}
    ]},
    {"smiles": "CS(=O)(=O)N1CCC(C(=O)N(Cc2ccc(-c3nnc(C(F)(F)F)o3)cc2F)c2ccccc2)CC1", "note": "[Compound 11207, N-(2-fluoro-4-(5-(trifluoromethyl)-1,3,4-oxadiazol-2-yl)benzyl)-1-(methylsulfonyl)-N-phenylpiperidine-4-carboxamide]", "values": [
      {"measurement": "HDAC6 selectivity (fold)", "value": 813, "unit": "fold"},
      {"measurement": "IC50", "value": 123, "unit": "nM"}
    ]},
    {"smiles": "CN1CCC(C(=O)N(Cc2ccc(-c3nnc(C(F)F)o3)cc2F)c2ccccc2)CC1", "note": "[Compound 11208, N-(4-(5-(difluoromethyl)-1,3,4-oxadiazol-2-yl)-2-fluorobenzyl)-1-methyl-N-phenylpiperidine-4-carboxamide]", "values": [
      {"measurement": "HDAC6 selectivity (fold)", "value": 1136, "unit": "fold"},
      {"measurement": "IC50", "value": 88, "unit": "nM"}
    ]},
    {"smiles": "CCN1CCC(C(=O)N(Cc2ccc(-c3nnc(C(F)F)o3)cc2F)c2ccccc2)CC1", "note": "[Compound 11209, N-(4-(5-(difluoromethyl)-1,3,4-oxadiazol-2-yl)-2-fluorobenzyl)-1-ethyl-N-phenylpiperidine-4-carboxamide]", "values": [
      {"measurement": "HDAC6 selectivity (fold)", "value": 1031, "unit": "fold"},
      {"measurement": "IC50", "value": 97, "unit": "nM"}
    ]},
    {"smiles": "CC(C)N1CCC(C(=O)N(Cc2ccc(-c3nnc(C(F)F)o3)cc2F)c2ccccc2)CC1", "note": "[Compound 11210, N-(4-(5-(difluoromethyl)-1,3,4-oxadiazol-2-yl)-2-fluorobenzyl)-1-isopropyl-N-phenylpiperidine-4-carboxamide]", "values": [
      {"measurement": "HDAC6 selectivity (fold)", "value": 418, "unit": "fold"},
      {"measurement": "IC50", "value": 239, "unit": "nM"}
    ]},
    {"smiles": "CC(=O)N1CCC(C(=O)N(Cc2ccc(-c3nnc(C(F)F)o3)cc2F)c2ccccc2)CC1", "note": "[Compound 11211, 1-acetyl-N-(4-(5-(difluoromethyl)-1,3,4-oxadiazol-2-yl)-2-fluorobenzyl)-N-phenylpiperidine-4-carboxamide]", "values": [
      {"measurement": "HDAC6 selectivity (fold)", "value": 1351, "unit": "fold"},
      {"measurement": "IC50", "value": 74, "unit": "nM"}
    ]},
    {"smiles": "CCC(=O)N1CCC(C(=O)N(Cc2ccc(-c3nnc(C(F)F)o3)cc2F)c2ccccc2)CC1", "note": "[Compound 11212, N-(4-(5-(difluoromethyl)-1,3,4-oxadiazol-2-yl)-2-fluorobenzyl)-N-phenyl-1-propionylpiperidine-4-carboxamide]", "values": [
      {"measurement": "HDAC6 selectivity (fold)", "value": 1124, "unit": "fold"},
      {"measurement": "IC50", "value": 89, "unit": "nM"}
    ]},
    {"smiles": "CC(C)C(=O)N1CCC(C(=O)N(Cc2ccc(-c3nnc(C(F)F)o3)cc2F)c2ccccc2)CC1", "note": "[Compound 11213, N-(4-(5-(difluoromethyl)-1,3,4-oxadiazol-2-yl)-2-fluorobenzyl)-1-isobutyryl-N-phenylpiperidine-4-carboxamide]", "values": [
      {"measurement": "HDAC6 selectivity (fold)", "value": 781, "unit": "fold"},
      {"measurement": "IC50", "value": 128, "unit": "nM"}
    ]},
    {"smiles": "O=C(C1CCN(C(=O)C(F)(F)F)CC1)N(Cc1ccc(-c2nnc(C(F)F)o2)cc1F)c1ccccc1", "note": "[Compound 11214, N-(4-(5-(difluoromethyl)-1,3,4-oxadiazol-2-yl)-2-fluorobenzyl)-N-phenyl-1-(2,2,2-trifluoroacetyl)piperidine-4-carboxamide]", "values": [
      {"measurement": "HDAC6 selectivity (fold)", "value": 714, "unit": "fold"},
      {"measurement": "IC50", "value": 140, "unit": "nM"}
    ]}
  ]
}
